According to publication PMC12029925, “Kinetics of Manganese Peroxidase Using Simple Phenolic Compounds as Substrates” (Metabolites, 2025):

System: T1, MnP (manganese peroxidase)
T1 construct: gene MNP1; commercial recombinant enzyme (Sigma Aldrich), expressed in corn
Assay: UV/Vis quinone formation at […] nm, Michaelis-Menten fit
Type: biochemical, Phanerochaete chrysosporium
Settings: with 1 mM Mn(II); 0.05% H2O2; 0.1 M sodium acetate pH 4.5; 25 °C; 50 µM MnP; 8 min; apparent, oxidation may be mediated by Mn(III)

Structure (SMILES)	Km [µM]
O=C(O)c1cc(O)c(O)c(O)c1 [gallic acid]	660
Oc1cccc(O)c1O [pyrogallol]	280
